Values joined by “and” are separate entries in the source; they are usually repeats but may differ in a detail not shown here. Equal entries are not always repeated. Where two headings read alike, the source gives them in different places.
Columns and labels:
[1] = biological target: T1, human liver cytosolic AOX1 (Homo sapiens, UniProt Q06278); assay: Effects of a competing AOX1 substrate and a competitive AOX1 inhibitor on AOX1 inactivation; type: biochemical; design: Enzymatic reaction was initiated by adding human liver cytosol (100 μg); tissue Corning, Inc. (Gentest brand) 452115; host or cells: human liver cytosol, pool of 150 donors; conditions: human liver cytosol; for effect of O^6-benzylguanine on extent of AOX1 inactivation: O^6-benzylguanine 120, 240 (480) μM; for effect of O^6-benzylguanine on extent of AOX1 inactivation / effect of gefitinib on extent of AOX1 inactivation: carbazeran 4-oxidation; for effect of gefitinib on extent of AOX1 inactivation: gefitinib 3, 10, 30 μM
T1 sequence (Q06278 1-1338): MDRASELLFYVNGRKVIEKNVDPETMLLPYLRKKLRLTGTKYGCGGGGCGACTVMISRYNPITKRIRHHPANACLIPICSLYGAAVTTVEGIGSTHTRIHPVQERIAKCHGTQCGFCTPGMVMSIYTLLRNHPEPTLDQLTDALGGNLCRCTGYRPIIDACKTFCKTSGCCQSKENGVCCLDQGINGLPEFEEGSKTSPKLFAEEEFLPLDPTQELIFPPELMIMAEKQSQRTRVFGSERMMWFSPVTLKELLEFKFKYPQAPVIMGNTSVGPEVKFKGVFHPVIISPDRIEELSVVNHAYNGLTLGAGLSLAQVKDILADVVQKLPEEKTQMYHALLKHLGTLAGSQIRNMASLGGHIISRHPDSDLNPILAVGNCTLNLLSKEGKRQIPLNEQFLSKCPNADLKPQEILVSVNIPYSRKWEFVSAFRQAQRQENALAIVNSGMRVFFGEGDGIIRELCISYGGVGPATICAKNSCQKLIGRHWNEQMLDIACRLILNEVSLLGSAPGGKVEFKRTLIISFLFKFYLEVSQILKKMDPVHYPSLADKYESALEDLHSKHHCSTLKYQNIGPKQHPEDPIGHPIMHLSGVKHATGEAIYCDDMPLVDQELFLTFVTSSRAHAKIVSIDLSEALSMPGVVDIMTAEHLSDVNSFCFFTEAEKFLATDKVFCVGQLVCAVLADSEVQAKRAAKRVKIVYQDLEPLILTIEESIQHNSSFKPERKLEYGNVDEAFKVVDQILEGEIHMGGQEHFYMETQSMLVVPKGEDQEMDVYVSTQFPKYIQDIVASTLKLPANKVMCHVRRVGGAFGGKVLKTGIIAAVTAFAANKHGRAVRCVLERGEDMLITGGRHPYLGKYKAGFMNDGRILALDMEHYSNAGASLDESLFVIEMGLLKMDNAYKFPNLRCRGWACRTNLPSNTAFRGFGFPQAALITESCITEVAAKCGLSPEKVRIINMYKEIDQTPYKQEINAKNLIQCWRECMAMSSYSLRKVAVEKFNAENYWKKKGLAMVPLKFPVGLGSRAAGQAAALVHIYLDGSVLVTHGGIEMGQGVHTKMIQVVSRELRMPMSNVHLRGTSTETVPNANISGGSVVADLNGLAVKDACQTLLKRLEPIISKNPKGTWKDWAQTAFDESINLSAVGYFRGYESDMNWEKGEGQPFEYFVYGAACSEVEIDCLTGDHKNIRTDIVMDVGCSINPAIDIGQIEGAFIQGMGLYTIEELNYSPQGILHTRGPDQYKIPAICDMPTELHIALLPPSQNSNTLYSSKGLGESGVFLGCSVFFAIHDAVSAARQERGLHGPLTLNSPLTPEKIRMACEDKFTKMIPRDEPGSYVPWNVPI
Description: The molar ratio of O^6-benzylguanine (120, 240, and 480 μM) to 3-vinylerlotinib (10 μM) was 12, 24, and 48, O^6-benzylguanine to 4′-methylerlotinib (3 μM) was 40, 80, and 160, and O^6-benzylguanine to 2-methylerlotinib (1 μM) was 120, 240, and 480, respectively. […] Each standard incubation mixture was subjected to the same procedures as described in Enzyme Inactivation Experiments. The residual AOX1 enzyme activity was determined by the carbazeran 4-oxidation or O^6-benzylguanine 8-oxidation assay.

[2] = biological target: T1, human liver cytosolic AOX1; assay: Enzyme inactivation of human liver cytosolic AOX1-mediated carbazeran 4-oxidation; conditions: for kinact: human liver cytosol 100 μg, carbazeran 15 μM, 37 °C; for Experimental Log KI: log of KI
Description: Carbazeran 4-oxidation and O^6-benzylguanine 8-oxidation were deployed as AOX1-selective catalytic markers.[27] The assay conditions (amount of cytosolic protein, incubation time, and substrate concentration) for carbazeran 4-oxidation catalyzed by human recombinant AOX1 and human/rat/mouse liver cytosols were optimized previously.[7]^,[25]
Enzymatic reaction was initiated by adding human liver cytosol (100 μg). After the specified preincubation duration, an aliquot (10 μL) of the preincubation mixture was transferred to 190 μL of a prewarmed (for 3 minutes at 37 °C) secondary incubation mixture (total volume of 200 μL) containing potassium phosphate buffer and carbazeran (15 μM) or O^6-benzylguanine (150 μM), which yielded a 20-fold dilution of the primary incubation mixture. The secondary incubation mixture was incubated for 5 minutes at 37 °C before the enzymatic reaction was terminated with 200 μL of ice-cold acetonitrile containing carbazeran-d4 (2.5 nM final concentration; internal standard for 4-oxo-carbazeran) or tolbutamide (25 nM final concentration; internal standard for 8-oxo-O^6-benzylguanine). Each sample was immediately mixed by vortex, placed on ice, centrifuged at 16,000g for 15 minutes at 4 °C and stored at –30 °C until ultra-high performance liquid chromatography–tandem mass spectrometry (UPLC-MS/MS) analysis. For enzyme inactivation assays involving rat and mouse liver cytosol and recombinant AOX1 assays, the experimental conditions were similar to those of human liver cytosol, except that the amount of cytosolic protein was 200 μg (rat) and 150 μg (mouse), respectively, and the incubation time of the secondary incubation mixture was 60 minutes. For the recombinant AOX1 enzyme assay, the amount of enzyme was 100 μg, the incubation time of the secondary incubation mixture was 15 minutes, and the total volume of the primary and secondary incubation mixtures was reduced to 100 μL.
Preliminary experiments were performed to optimize the incubation time and concentration of an inactivator to ensure a log-linear decrease in enzyme activity over time and that the kobs versus inactivator concentration plot reaches a plateau for the determination of the kinact value. The observed first-order rate constant for inactivation (kobs), maximal inactivation rate constant (kinact), half-maximal inactivation concentration (KI), and the time required for half of the enzyme molecules to be inactivated (t1/2) were calculated as described in our previous publication.[28]

[3] = half-maximal inactivation concentration, human liver cytosol, carbazeran 4-oxidation
[4] = human liver cytosol, carbazeran 4-oxidation
[5] = read-out: KI,u, unbound, KI,u = fu × KI, fu at 10 μM in human liver cytosol
[6] = human liver cytosol, 10 μM (raloxifene 0.02 μM), 30-minute preincubation
[7] = human liver cytosol, inactivator 1.5 μM alone, 6-minute preincubation

Row | Compound | effect of O^6-benzylguanine on extent of AOX1 inactivation [1] | effect of gefitinib on extent of AOX1 inactivation [1] | KI, fold higher compared with erlotinib ([2]; Table 1 values) [fold] | kinact, decrease compared with erlotinib ([2]; Table 1 values) [%] | kinact/KI ratio, decrease compared with erlotinib ([2]; Table 1 values) [%] | t1/2, fold longer compared with erlotinib ([2]; Table 1 values) | Ki [2, 3] [µM] | kinact [2] | Inactivation t1/2 [2, 4] | kinact/KI [2, 4] | Ki [2, 5] [µM] | decrease in carbazeran 4-oxidation [2, 6] [%] | Experimental Log KI ([2]; human liver cytosol) | decrease in carbazeran 4-oxidation [2, 7] | further results
1 | C#Cc1cccc(Nc2nc(C)nc3cc(OCCOC)c(OCCOC)cc23)c1 [2-Methylerlotinib, 2-methylerlotinib] | attenuated | attenuated | 1.5 | 26 | 51 | 1.3 fold | 4 ± 0.27 | 0.84 ± 0.10∗∗ min^–1 | 0.83 ± 0.11 min | 0.21 ± 0.01∗∗∗ min^–1μM^–1 | 2.04 ± 0.14 | – | – | – | –
2 | C=Cc1cccc(Nc2ncnc3cc(OCCOC)c(OCCOC)cc23)c1 [3-Vinylerlotinib, 3-vinylerlotinib] | attenuated | attenuated | ~11 | – | – | approximately 3.5 fold | 30.6 ± 9.6 | 0.33 ± 0.07∗∗∗ min^–1 | 2.14 ± 0.47∗ min | – | 23.9 ± 7.53 | 84 | 1.5 ± 0.15∗∗∗ μM | – | kinact, fold lower compared with erlotinib ([2]; Table 1 values): approximately 3.5 fold; kinact/KI ratio, fold lower compared with erlotinib ([2]; Table 1 values): ~43 fold; decrease in carbazeran 4-oxidation ([2]; human liver cytosol, 6 minutes of preincubation (data not shown)): did not decrease
3 | C#Cc1cc(Nc2ncnc3cc(OCCOC)c(OCCOC)cc23)ccc1C [4′-Methylerlotinib, 4′-methylerlotinib] | attenuated | attenuated | – | 88 | 70 | 8.5 fold | 1.03 ± 0.27 | 0.14 ± 0.03∗∗∗ min^–1 | 5.29 ± 1.19∗∗∗ min | 0.13 ± 0.02∗∗∗ min^–1μM^–1 | 0.75 ± 0.2 | – | – | – | KI, decrease compared with erlotinib ([2]; Table 1 values): 62%
4 | C#Cc1cccc(Nc2ncnc3cc(OCCOC)c(OCCOC)cc23)c1 [Erlotinib] | attenuated | – | – | – | – | – | – | – | 0.62 ± 0.09 min | – | – | – | – | – | decrease in carbazeran 4-oxidation in the presence of gefitinib ([1]; inactivator 1.5 μM + 3 μM gefitinib): 73%; decrease in carbazeran 4-oxidation in the presence of gefitinib ([1]; inactivator 1.5 μM + 10 μM gefitinib): 55%; decrease in carbazeran 4-oxidation in the presence of gefitinib ([1]; inactivator 1.5 μM + 30 μM gefitinib): 47%
5 | C#Cc1cccc(Nc2ncnc3cc(OCCOC)c(OCCO)cc23)c1 [O-Desmethylerlotinib, O-desmethylerlotinib] | attenuated | attenuated | – | – | – | – | – | 1.05 ± 0.06 min^–1 | 0.66 ± 0.04 min | 0.21 ± 0.04∗∗∗ min^–1μM^–1 | 4.41 ± 1.04 | 99 | 0.71 ± 0.11∗ μM | 69% and 79% and 80% | KI (inactivation) ([2]; read-out: KI, half-maximal inactivation concentration, human liver cytosol, carbazeran 4-oxidation): 5.23 ± 1.24 µM
6 | C#Cc1cccc(Nc2ncnc3cc(OCCO)c(OCCO)cc23)c1 [O-Didesmethylerlotinib, O-didesmethylerlotinib] | attenuated | attenuated | – | – | – | – | 1.98 ± 0.2 | 1.00 ± 0.04 min^–1 | 0.70 ± 0.03 min | 0.50 ± 0.03∗∗ min^–1μM^–1 | 1.67 ± 0.17 | 99 | 0.30 ± 0.04 μM | 90% and 89% and 92% | –

Reference: paper PMC12881681 (Molecular Pharmacology, 2025)
